Reference: patent US20220056018A1, “SREBP INHIBITORS COMPRISING A THIOPHENE CENTRAL RING” (Capulus Therapeutics, LLC, priority 2019, published 2022)

How the values were obtained:
[1] = Stability in human liver microsomes; format: in vitro ADME; details: 37° C., NADPH
Method in brief: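 Compound from a 100 μM working solution was preincubated 10 min at 37 °C with human liver microsomes (added at 3.33 mg/mL) in 100 mM potassium phosphate. Incubation then ran 60 min at 37 °C with NADPH (2.85 mM cofactor solution), alongside a no-cofactor 60-min control and a 0-min sample. Parent compound was quantified by LC-MS/MS after acetonitrile quench for half-life.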

[2] = system: CALU6; test: Cancer cell growth inhibition; format: cell-based; details: Homo sapiens, Calu-6; CALU6 (lung), 72 hr treatment
Description: (§1) The ability of select compounds to inhibit cell growth in various cancer cell lines are evaluated. […] The cell lines shown in Table 2 have reduced growth by at least 50% at 10 uM or lower over 72 hr treatment in growth media. The cell lines shown in Table 3 have reduced growth by at least 50% with an IC50 greater than 10 uM.
(§2) Six 10-fold compound dilutions are prepared in DMSO (e.g. 10 mM, 1 mM, 100 uM, 10 uM, 1 uM, and 0.1 uM). Single data points are acquired for each concentration. The final concentration of DMSO is 0.1%. The duration of the treatment is 72 hr. Growth inhibition is measured using Sulforhodamine B in a protein staining assay. Activity of the agents is determined by evaluation the following parameters: IC50, GI50, IC10, TGI, LC50, IC90, and GI90 (where these values can be calculated).

[3] = system: SKOV3; test: Cancer cell growth inhibition; format: cell-based; details: Homo sapiens, SK-OV-3; SKOV3 (ovary), 72 hr treatment
Description: as §1, §2

[4] = system: THP-1; test: Cancer cell growth inhibition; format: cell-based; details: Homo sapiens; THP-1 (hematological), 72 hr treatment
Description: as §1, §2

[5] = system: HT29; test: Cancer cell growth inhibition; format: cell-based; details: Homo sapiens, HT-29; HT29 (colon), 72 hr treatment
Description: as §1, §2

[6] = system: SKBR3; test: Cancer cell growth inhibition; format: cell-based; details: Homo sapiens, SK-BR-3; SKBR3 (breast), 72 hr treatment
Description: as §1, §2

[7] = system: A2780; test: Cancer cell growth inhibition; format: cell-based; details: Homo sapiens; A2780 (ovary), 72 hr treatment
Description: as §1, §2

[8] = system: PANC1005; test: Cancer cell growth inhibition; format: cell-based; details: Homo sapiens; PANC1005 (pancreas), 72 hr treatment
Description: as §1, §2

[9] = system: UMUC3; test: Cancer cell growth inhibition; format: cell-based; details: Homo sapiens; UMUC3 (bladder), 72 hr treatment
Description: as §1, §2

[10] = system: T24; test: Cancer cell growth inhibition; format: cell-based; details: Homo sapiens, T-24; T24 (bladder), 72 hr treatment
Description: as §1, §2

[11] = system: MDAMB231; test: Cancer cell growth inhibition; format: cell-based; details: Homo sapiens, MDA-MB-231; MDAMB231 (breast), 72 hr treatment
Description: as §1, §2

[12] = system: SKMEL5; test: Cancer cell growth inhibition; format: cell-based; details: Homo sapiens, SK-MEL-5; SKMEL5 (skin), 72 hr treatment
Description: as §1, §2

[13] = system: MT3; test: Cancer cell growth inhibition; format: cell-based; details: MT-3; MT3 (breast), 72 hr treatment
Description: as §1, §2

[14] = system: OVCAR3; test: Cancer cell growth inhibition; format: cell-based; details: Homo sapiens, OVCAR-3; OVCAR3 (ovary), 72 hr treatment
Description: as §1, §2

[15] = system: COLO678; test: Cancer cell growth inhibition; format: cell-based; details: Homo sapiens, COLO-678; COLO678 (colon), 72 hr treatment
Description: as §1, §2

[16] = system: U2OS; test: Cancer cell growth inhibition; format: cell-based; details: Homo sapiens; U2OS (bone), 72 hr treatment
Description: as §1, §2

[17] = system: K-562; test: Cancer cell growth inhibition; format: cell-based; details: Homo sapiens, K562; K-562 (hematological), 72 hr treatment
Description: as §1, §2

[18] = system: JEG3; test: Cancer cell growth inhibition; format: cell-based; details: Homo sapiens, JEG-3; JEG3 (placenta), 72 hr treatment
Description: as §1, §2

[19] = system: J82; test: Cancer cell growth inhibition; format: cell-based; details: Homo sapiens; J82 (bladder), 72 hr treatment
Description: as §1, §2

[20] = system: CLS439; test: Cancer cell growth inhibition; format: cell-based; details: CLS439 (bladder), 72 hr treatment
Description: as §1, §2

[21] = system: HCT116; test: Cancer cell growth inhibition; format: cell-based; details: Homo sapiens, HCT-116; HCT116 (colon), 72 hr treatment
Description: as §1, §2

[22] = system: L-363; test: Cancer cell growth inhibition; format: cell-based; details: Homo sapiens; L-363 (hematological), 72 hr treatment
Description: as §1, §2

[23] = system: KASUMI-1; test: Cancer cell growth inhibition; format: cell-based; details: Homo sapiens; KASUMI-1 (hematological), 72 hr treatment
Description: as §1, §2

[24] = system: GRANTA-519; test: Cancer cell growth inhibition; format: cell-based; details: Homo sapiens; GRANTA-519 (hematological), 72 hr treatment
Description: as §1, §2

[25] = system: MDAMB468; test: Cancer cell growth inhibition; format: cell-based; details: Homo sapiens, MDA-MB-468; MDAMB468 (breast), 72 hr treatment
Description: as §1, §2

percent of compound remaining after 60 min in human liver microsomes [1] | IC50 [2] | IC50 [3] | IC50 [4] | IC50 [5] | IC50 [6] | IC50 [7] | IC50 [8] | IC50 [9] | IC50 [10] | IC50 [11] | IC50 [12] | IC50 [13] | IC50 [14] | IC50 [15] | IC50 [16] | IC50 [17] | IC50 [18] | IC50 [19] | IC50 [20] | Compound | other results
+++ (>60.1 = +++) | < 10 µM | < 10 µM | < 10 µM | < 10 µM | < 10 µM | < 10 µM | > 10 µM | < 10 µM | < 10 µM | > 10 µM | < 10 µM | < 10 µM | < 10 µM | < 10 µM | < 10 µM | < 10 µM | < 10 µM | > 10 µM | < 10 µM | CS(=O)(=O)Nc1ccc(-c2cc(-c3ccnc4c3OCCO4)cs2)c(Cl)c1 [Compound I-9017, N-(3-chloro-4-(4-(2,3-dihydro-[1,4]dioxino[2,3-b]pyridin-8-yl)thiophen-2-yl)phenyl)methanesulfonamide] | IC50 [21]: < 10 µM; IC50 [22]: < 10 µM; IC50 [23]: < 10 µM; IC50 [24]: < 10 µM; IC50 [25]: < 10 µM
+++ (>60.1 = +++) | < 10 µM | > 10 µM | < 10 µM | < 10 µM | < 10 µM | < 10 µM | < 10 µM | < 10 µM | > 10 µM | > 10 µM | < 10 µM | < 10 µM | < 10 µM | < 10 µM | > 10 µM | < 10 µM | < 10 µM | > 10 µM | > 10 µM | CC(C)(O)Cc1cc(-c2csc(-c3ccc(NS(C)(=O)=O)cc3Cl)c2)ccn1 [Compound I-9004, N-(3-chloro-4-(4-(2-(2-hydroxy-2-methylpropyl)pyridin-4-yl)thiophen-2-yl)phenyl)methanesulfonamide] | IC50 [21]: < 10 µM; IC50 [22]: < 10 µM; IC50 [23]: > 10 µM; IC50 [24]: > 10 µM; IC50 [25]: < 10 µM
++ (30.1-60 = ++) | < 10 µM | > 10 µM | < 10 µM | < 10 µM | < 10 µM | < 10 µM | < 10 µM | < 10 µM | > 10 µM | > 10 µM | < 10 µM | < 10 µM | < 10 µM | < 10 µM | > 10 µM | < 10 µM | < 10 µM | < 10 µM | > 10 µM | CC(C)(CO)c1cc(-c2csc(-c3ccc(NS(C)(=O)=O)cc3Cl)c2)ccn1 [Compound I-8909, N-(3-chloro-4-(4-(2-(1-hydroxy-2-methylpropan-2-yl)pyridin-4-yl)thiophen-2-yl)phenyl)methanesulfonamide] | IC50 [21]: < 10 µM; IC50 [22]: < 10 µM; IC50 [23]: > 10 µM; IC50 [24]: > 10 µM; IC50 [25]: < 10 µM
